Numbered stars: 1 amine (or outer) side, 2 acyl side, 3 side chain; on linkers, the order of the positions; unused ones are H or OH. Square brackets hold non-standard residues; d marks the D form. Side chains are listed from the residue outwards. Peptide text beside a SMILES is read from it. * marks the point of attachment. C18 diacid = O=C(O)CCCCCCCCCCCCCCCCC(=O)*; γGlu = O=C(O)[C@H](CCC(=O)[*:2])N[*:1]; Aib = CC(C)(N)C(=O)O
How the values were obtained:
[1] = target: T1, Mouse GCGR (Mus musculus, UniProt Q61606); test: Receptor binding, SPA competitive binding assay; conditions: SPA competitive binding on BHK cell membranes, [125I]-glucagon tracer, 1% species specific plasma, 2 h 30°C; value (95% CI)
T1 construct: a plasmid encoding either the glucagon receptor or the GLP-1 receptor from the relevant species; expressed in transfected cells
T1 sequence (Q61606 27-485): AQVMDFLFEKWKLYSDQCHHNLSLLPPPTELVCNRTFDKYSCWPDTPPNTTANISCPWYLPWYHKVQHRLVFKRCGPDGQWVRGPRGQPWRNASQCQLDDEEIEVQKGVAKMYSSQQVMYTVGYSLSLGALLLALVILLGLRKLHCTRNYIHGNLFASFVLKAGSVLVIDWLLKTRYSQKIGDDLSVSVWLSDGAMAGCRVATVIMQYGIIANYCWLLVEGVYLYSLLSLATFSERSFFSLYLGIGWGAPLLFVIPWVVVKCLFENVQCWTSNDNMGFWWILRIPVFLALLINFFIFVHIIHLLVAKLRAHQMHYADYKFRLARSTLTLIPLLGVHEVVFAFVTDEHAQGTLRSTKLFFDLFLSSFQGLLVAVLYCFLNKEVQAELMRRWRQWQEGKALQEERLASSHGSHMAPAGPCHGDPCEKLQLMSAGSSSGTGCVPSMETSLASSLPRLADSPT

[2] = test system: DIO rats; test: Subchronic effect on body weight, body composition and food intake in DIO rats; type: in vivo, rat; conditions: three weeks
Text: Male C57Bl/6J mice were purchased from Jackson Lab (Bar Harbour, ME) or Taconic, (Denmark). Male Sprague Dawley rats were purchased from Taconic (Denmark). Lean animals were fed regular chow diet (Altromin 1324, Brogaarden, Denmark). Obese animals were fed a high-fat diet, 45% kcal from fat (D12492, Research Diets, New Brunswick, NJ) from the age of 4–6 weeks in order to obtain a diet induced obese (DIO) phenotype. Animals were housed under temperature and humidity-controlled conditions in a 12:12 hr light:dark cycle (lights on at 6 a.m.). Rats were housed three per cage during high fat feeding and were single housed five weeks prior to study. Mice were single housed, two per cage, with a partitioning wall where possible. All animals had ad libitum access to diet and water, except when fasted prior to experimental procedures. Animals were acclimatized to study conditions (energy expenditure cages, daily mock handling etc) at least one week prior to first dose. […] At the time of study, animals were 20–30 weeks old with a body weight of 45–50 g (DIO mice) or approximately 600 g (DIO rats). […] Oral glucose tolerance was evaluated on study day 15, 5 h post-dosing (at Cmax). Animals were fasted for 5 h prior to oral administration of glucose (3 g/kg). […] Conscious animals were MR-scanned prior to initiation of treatment and at the end of the treatment period.

[3] = target: T2, Rat GCGR (Rattus norvegicus, UniProt P30082); test: Receptor potency, CRE-luciferase functional assay in BHK cells; type: cell-based; conditions: Rat receptors, whole BHK cells, 0% plasma, 3 h 37°C, value (95% CI)
T2 construct: a plasmid encoding either the glucagon receptor or the GLP-1 receptor from the relevant species; expressed in transfected cells
T2 sequence (P30082 27-485): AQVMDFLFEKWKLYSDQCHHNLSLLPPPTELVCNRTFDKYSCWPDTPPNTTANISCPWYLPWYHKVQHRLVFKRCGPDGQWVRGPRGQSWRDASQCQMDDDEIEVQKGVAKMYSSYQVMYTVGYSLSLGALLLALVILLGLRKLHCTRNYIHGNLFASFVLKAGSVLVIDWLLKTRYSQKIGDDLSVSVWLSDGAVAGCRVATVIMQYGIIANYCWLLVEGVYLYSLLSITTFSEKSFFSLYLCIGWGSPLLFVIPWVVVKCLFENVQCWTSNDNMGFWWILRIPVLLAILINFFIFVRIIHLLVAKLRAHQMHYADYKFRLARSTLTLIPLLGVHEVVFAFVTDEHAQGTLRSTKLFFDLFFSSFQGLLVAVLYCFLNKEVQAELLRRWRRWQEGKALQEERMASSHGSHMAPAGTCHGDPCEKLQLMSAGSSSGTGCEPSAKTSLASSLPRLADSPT
Procedure: (§1) The binding assay was performed on cell membranes in the presence of 1% (v/v) species-specific heparin-treated pooled plasma (Bioreclamation IVT, Westbury, NY) diluted in assay buffer (50 mM HEPES supplemented with 5 mM EGTA, 5 mM MgCl2, and 0.005% (v/v) Tween 20, pH7.4). […] Cells stably expressing an individual receptor of interest were grown at 5% CO2, 37°C in DMEM (supplemented with 10% FCS, 0.5 mg/ml G418 and 0.3 mg/ml hygromycin). Membrane preparations were made from cells harvested at approximately 80% confluence, washed and homogenized in 20 mM HEPES with 0.1 mM EDTA, pH 7.4. Protein concentration was determined, and the membranes were stored at -80°C until use. The membrane binding assay was performed in a 96-well OptiPlate (PerkinElmer) in a total volume of 200 μl. Test compounds were dissolved in 80% DMSO and further diluted in assay buffer. 50 μl of diluted plasma was added to the assay plate wells followed by addition of test compounds (25 μl), cell membranes (50 μl, 0.06 mg/ml), SPA beads (20 mg/ml in assay buffer) and radioligand (60,000 cpm/well, corresponding to 0.06 nM; 2200 Ci/mmol. Each assay plate was incubated for 2 h at 30°C, centrifuged at 1500 rpm for 10 minutes and counted in a TopCount NXT instrument (PerkinElmer).
(§2) Functional assays were performed on whole cells in the absence or presence of 100% species-specific heparin-treated pooled plasma (Bioreclamation IVT). […] The cells were cultured with DMEM (supplemented with GlutaMAX, 10% FBS, 0.5 mg/ml G418 and 0.3 mg/ml hygromycin) at 5% CO2 and 37°C. At approximately 80–90% confluence, cells were washed with PBS and harvested with Versene (Life Technologies, Carlsbad, CA). The cells were counted and plated into 96-well microtiter plates coated with poly-D-Lys (Corning BioCoat) with 5,000 cells/well and thereafter incubated overnight in growth media. The next day the media was changed to assay buffer (DMEM without phenol red, supplemented with GlutaMAX, 10 mM HEPES, 1% ovalbumin and 0.1% Pluronic F-68) or to 100% plasma. In the absence of plasma, compounds were diluted in assay buffer. In assays tested with plasma, compounds were diluted in pure plasma. Buffer was removed from the plates and 50 μl of test compound dilutions was added to the plates followed by 50 μl of plasma or the same buffer used for compound dilution. The assay plates were incubated for 3 h in a 5% CO2 incubator at 37°C. The plates were then transferred to room temperature for 15 min and 100 μl Steadylite Plus reagent (PerkinElmer) was added to each well. The plates were shaken for 30 min at room temperature while protected from light after which luminescence was measured.
(§3) For the receptor binding assays, logIC50 values were calculated using non-linear regression analysis. The error estimation was reported as the 95% confidence interval. […] The calculations were performed in GraphPad Prism 6.4 (GraphPad, San Diego, CA) and error estimation was expressed as the 95% confidence interval. […] Averages, error estimation, ratios and plasma shifts were all calculated on logIC50 or logEC50 values and transformed to the anti-log values for reporting purposes.

[4] = target: T1, Mouse GCGR; test: as above; type: cell-based; conditions: Mouse receptors, whole BHK cells, 3 h 37°C, value (95% CI)
Procedure: as §1, §2, §3

[5] = target: T3, Mouse GLP-1R (Mus musculus, UniProt O35659); test: as above; type: cell-based; conditions: GLP-1R EC50, pM (95% CI) 100% plasma, Mouse receptors, whole BHK cells, 100% species-specific plasma, 3 h 37°C, value (95% CI)
T3 construct: a plasmid encoding either the glucagon receptor or the GLP-1 receptor from the relevant species; expressed in transfected cells
T3 sequence (O35659 22-463): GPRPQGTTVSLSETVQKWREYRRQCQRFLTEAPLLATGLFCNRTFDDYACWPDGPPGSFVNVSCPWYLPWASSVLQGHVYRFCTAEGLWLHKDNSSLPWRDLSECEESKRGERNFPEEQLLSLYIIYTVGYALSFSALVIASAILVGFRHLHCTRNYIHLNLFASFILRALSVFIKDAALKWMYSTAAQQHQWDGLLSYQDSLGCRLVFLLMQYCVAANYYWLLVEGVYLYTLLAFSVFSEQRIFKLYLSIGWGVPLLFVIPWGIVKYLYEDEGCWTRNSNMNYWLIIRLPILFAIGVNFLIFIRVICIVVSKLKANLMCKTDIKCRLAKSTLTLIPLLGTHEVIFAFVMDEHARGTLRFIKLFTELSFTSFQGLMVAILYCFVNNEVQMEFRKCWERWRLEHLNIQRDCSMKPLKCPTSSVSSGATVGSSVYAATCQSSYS
Procedure: as §1, §2, §3

IC50 [1]: 0.29 nM | EC50 [3]: 0.00183 nM | EC50 ([4]; GCGR EC50, pM (95% CI) 0% plasma, 0% plasma): 1.96 pM | EC50 ([4]; GCGR EC50, pM (95% CI) 100% plasma, 100% species-specific plasma): 103 pM | EC50 [5]: 12.6 pM
SMILES: CC(C)C[C@H](NC(=O)[C@H](Cc1ccc(O)cc1)NC(=O)[C@H](CCCCN)NC(=O)[C@H](CO)NC(=O)[C@H](CC(C)C)NC(=O)[C@H](CC(=O)O)NC(=O)[C@H](CO)NC(=O)[C@@H](NC(=O)[C@H](Cc1ccccc1)NC(=O)[C@@H](NC(=O)CNC(=O)[C@H](CCC(N)=O)NC(=O)C(C)(C)NC(=O)[C@@H](N)Cc1c[nH]cn1)[C@@H](C)O)[C@@H](C)O)C(=O)N[C@@H](CCC(=O)O)C(=O)N[C@@H](CO)C(=O)N[C@@H](CCCCN)C(=O)N[C@@H](CCCNC(=N)N)C(=O)N[C@@H](C)C(=O)N[C@@H](CCCNC(=N)N)C(=O)N[C@@H](CCC(=O)O)C(=O)N[C@@H](Cc1ccccc1)C(=O)N[C@H](C(=O)N[C@@H](CCC(N)=O)C(=O)N[C@@H](Cc1c[nH]c2ccccc12)C(=O)N[C@@H](CC(C)C)C(=O)N[C@@H](CC(C)C)C(=O)N[C@@H](CCCCNC(=O)CC[C@H](NC(=O)CC[C@H](NC(=O)[C@H](CO)NC(=O)[C@H](CCC(=O)O)NC(=O)[C@H](CO)NC(=O)CC[C@H](NC(=O)CC[C@H](NC(=O)CCCCCCCCCCCCCCCCC(=O)O)C(=O)O)C(=O)O)C(=O)O)C(=O)O)C(=O)N[C@H](C(N)=O)[C@@H](C)O)C(C)C [NN1177] (H-H[Aib]QGTFTSDLSKYLESKRAREFVQWLLK([γGlu-γGlu-Ser-Glu-Ser-γGlu-γGlu-C18 diacid])T-NH2)
Weight loss ([2]; 3 nmol/kg each compound s.c. once daily): 20% | Cumulative food intake ([2]; 3 nmol/kg s.c. once daily): equal reduction

Source: PMC8896685 (PLoS ONE, 2022)
